Experiment [1] relates to DLEC1 expression in ESCC, lung and NPC carcinoma cell lines. As to the kind of experiment: Demethylation treatment (Aza, TSA) and DLEC1 expression / promoter methylation analysis (RT-PCR, MSP, BGS). The experiment is classed as cell-based, human. The text has this:
A panel of ESCC, NPC and lung carcinoma cell lines was used. Immortalized normal esophageal epithelial (NE1, NE3, Het-1A), normal nasopharyngeal epithelial (NP69) and HEK293T cell lines were used. Cell lines were maintained in RPMI or DMEM medium (Gibco BRL, Rockville, Md.) with 10% fetal bovine serum. Human normal adult tissue RNA samples were obtained commercially (Stratagene, La Jolla, Calif., or Millipore Chemicon, Billerica, Mass.). Primary carcinoma tissues of Chinese ESCC, NPC and lung, some with matched normal samples, have been descried before. Cell lines were treated with 5 μM of 5-Aza-2′-deoxycytidine (Aza) (Sigma, St. Louis, Mo.) for 3 days, or even followed with ˜16 h additional TSA (final concentration […]) treatment as described. MSP and BGS were conducted according to previous reports. MSP was conducted for 40 cycles at the annealing temperatures of 60° C. for M and 58° C. for U. Amplified products from BGS primer set were cloned into pCR4-Topo vector (Invitrogen, Carlsbad, Calif.), with 6-8 colonies randomly chosen and sequenced. RNA was reverse-transcribed using MuLV reverse transcriptase (GeneAmp RNA PCR kit, Applied Biosystems). RT-PCR was performed as described previously using GAPDH as a control.

In another experiment the test system is DLEC1 CGI. As to the kind of experiment: ChIP assay, acetylated histone H4. Type of experiment: cell-based, human. Conditions: carcinoma cells following TSA treatment. As to the method:
ChIP assay was performed as described previously. Antibody to acetylated histone H4 (Upstate Biotechnology) was used to precipitate cross-linked chromatin. ACTIN was employed as a control for normalization of each PCR product.

The test system of experiment [2] is ESCC, lung and NPC carcinoma cells. Put plainly: Monolayer colony formation assay. Type of experiment: cell-based, human. Conditions: ectopically expressed DLEC1 in ESCC. As to the method:
(§1) Four pairs of primers (Table 6) were used to generate 4 DLEC1 fragments based on published DLEC1 sequence (GenBank accession number AB020522). Reverse transcription was carried out using normal testis RNA as template (BD Biosciences, Palo Alto, Calif.). The 4 product fragments were ligated to generate pcDNA3.1(+)-Flag-DLEC1 and pCMV-Flag-DLEC1-V5 expression plasmids. The mutation for three YXXQ motifs of DLEC1 (DLEC1-3Y, YXXQ-GGGG (“GGGG” disclosed as SEQ ID NO: 7)) was introduced by PCR into pCMV-Flag-DLEC1-V5 vector, with sequence confirmed. STAT3C expression plasmid was a gift from Prof. Honglin Chen (University of Hong Kong). Cells were transfected with lipofectamine 3000 (Invitrogen, Carlsbad, Calif.), and the cells were cultured in RPMI 1640 supplemented with 10% FBS and selected in 400 μg/mL of G418 for 20-30 days to establish some stable cell pools, with confirmed DLEC1 expression.
(§2) Colony formation assay was conducted as previously described. All experiments were performed in triplicate wells 3 times. To monitor cell proliferation, 1000 cells were plated in a 96-well plate and incubated at 37° C. in selective media for 3-(4,5-dimethylthiazolyl-2)-2,5-diphenyltetrazolium bromide (MTT) assay.

The test system of experiment [3] is multiple carcinoma cells stably-expressing DLEC1. Put plainly: Cell proliferation (MTT) assay. The experiment is classed as cell-based, human. As to the method: as §1, §2
In experiment [4] the test system is KYSE150, H1299 and HONE1 cells. Put plainly: Cell cycle analysis by flow cytometry (propidium iodide). Type of experiment: cell-based, human. Conditions: DLEC1-expressing KYSE150, H1299 and HONE1 cells. An excerpt: (§3) Flow cytometry analysis of cell cycle and apoptosis was described previously. Cells were stained with propidium iodide (PI) and Annexin V-FITC (BD Biosciences, Bedford, Mass.), and sorted by Accuri C6 (BD Biosciences, Bedford, Mass.) according to the manufacturer's protocol.

Experiment [5] concerns carcinoma cells. Put plainly: Cell apoptosis assay (Annexin V-FITC/PI flow cytometry, Western blot of apoptosis markers). The experiment is classed as cell-based, human. On the procedure: as §3
(§4) Human IL-6 (PF01229) (Peprotech, Rocky Hill, N.J.) was used. Western blot and IP experiments were performed according to previous protocols.
On the technique in general: Flow cytometry measures light scatter and fluorescence of single cells or particles in a stream.

Experiment [6] has as its system ESCC, lung and NPC carcinoma cells. As to the kind of experiment: Transwell migration and Matrigel invasion assays. The experiment is classed as cell-based, human. Conditions: transwell assay, ectopic expression of DLEC1. On the procedure:
Transwell migration and invasion assays were performed as previously described. The numbers of migrated or invaded cells were observed and counted using a light microscope. Five fields were randomly chosen and the numbers of penetrated cells were counted.

The test system of experiment [7] is carcinoma cells. As to the kind of experiment: Scratch wound-healing assay. The settings on record: confluent monolayer, versus mock cells. Type of experiment: cell-based, human. As to the method:
Cell motility was assessed using a scratch wound-healing assay. Cells transient transfected with DLEC1 were cultured in 6-well plates until confluent. A single scratch was produced in the cell layer using a sterile tip. After incubation for 24 and 48 hours, cells were photographed under a phase contrast microscope. The experiments were performed in triplicates.

For experiment [8], the system named is carcinoma cells. Put plainly: EMT, actin stress fiber and stemness marker analysis (immunofluorescence, Western blot, qPCR). The experiment is classed as cell-based, human. On the procedure: RNA was reverse-transcribed using MuLV reverse transcriptase (GeneAmp RNA PCR kit, Applied Biosystems). RT-PCR was performed as described previously using GAPDH as a control.
Cells grown on coverslips were stained by indirect immunofluorescence as described previously. Briefly, cells were incubated with primary antibodies against DLEC1, E-cadherin, or Vimentin and then incubated with Alexa Fluor 594-conjugated secondary antibody against mouse IgG (A11062) (Invitrogen Molecular Probes, Carlsbad, Calif.), or FITC-conjugated secondary antibody against rabbit IgG (F0205) (DAKO, Denmark). To analyze the effects of DLEC1 on actin stress fiber formation, cells were serum starved for 24 h before incubation in medium-containing 5% fetal bovine serum. After 1 h, cells were fixed and stained by Rhodamine-labeled phalloidin (Invitrogen Molecular Probes). Cells were then counterstained with DAPI and imaged with an Olympus BX51 microscope (Olympus Corporation, Tokyo, Japan).
On the technique in general: A western blot detects proteins with antibodies after separation by electrophoresis.

The test system of experiment [9] is NF-κB, AP-1, STATs-bs, TopFlash, SRE and PAI-1 reporters. As to the kind of experiment: Dual-luciferase reporter assay of signaling pathways. Conditions: carcinoma cells (ESCC, lung, NPC) or immortalized normal epithelial cells (NP69). Type of experiment: cell-based, human. On the procedure: The promoter activities were determined by luciferase reporter assays. Luciferase reporters of several key signaling pathways, including NF-κB-luc, AP-1-luc, SRE-luc, STATs-bs-luc, TopFlash-luc, and PAI-luc were used to examine signaling pathway regulated by DLEC1 Cells were transiently co-transfected with DLEC1 expression vector and phRL-TK […]. […] After 48 h, cells were lysed and luciferase activities were measured using Dual-Luciferase® Reporter Assay System (Promega, Madison, Wis.). To normalize transfection efficiency, phRL-TK luciferase activities were measured as an internal control. At least three independent experiments were performed, with each repeated in triplicates.
In general terms: A reporter such as luciferase makes a cellular process visible.

Experiment [10] concerns p-ERK, p-AKT, p-STAT3, active β-catenin. Put plainly: Western blot of signaling protein phosphorylation. Type of experiment: cell-based, human. On the procedure: as §4
In the next experiment the target is T1, STAT3 (Homo sapiens, UniProt P40763).
T1 construct: Association of endogenous DLEC1 and STAT3 proteins in HEK293T cells; endogenous in cells; host or cells: HEK293T
As to the kind of experiment: Co-immunoprecipitation with STAT3. Type of experiment: binding. As to the method:
as §4

The target in another experiment is T2, JAK2 (Homo sapiens, UniProt O60674).
T2 construct: endogenous in cells; host or cells: HEK293T
As to the kind of experiment: Co-immunoprecipitation with JAK2. Type of experiment: binding. On the procedure:
as §4

T2 sequence (O60674 whole entry): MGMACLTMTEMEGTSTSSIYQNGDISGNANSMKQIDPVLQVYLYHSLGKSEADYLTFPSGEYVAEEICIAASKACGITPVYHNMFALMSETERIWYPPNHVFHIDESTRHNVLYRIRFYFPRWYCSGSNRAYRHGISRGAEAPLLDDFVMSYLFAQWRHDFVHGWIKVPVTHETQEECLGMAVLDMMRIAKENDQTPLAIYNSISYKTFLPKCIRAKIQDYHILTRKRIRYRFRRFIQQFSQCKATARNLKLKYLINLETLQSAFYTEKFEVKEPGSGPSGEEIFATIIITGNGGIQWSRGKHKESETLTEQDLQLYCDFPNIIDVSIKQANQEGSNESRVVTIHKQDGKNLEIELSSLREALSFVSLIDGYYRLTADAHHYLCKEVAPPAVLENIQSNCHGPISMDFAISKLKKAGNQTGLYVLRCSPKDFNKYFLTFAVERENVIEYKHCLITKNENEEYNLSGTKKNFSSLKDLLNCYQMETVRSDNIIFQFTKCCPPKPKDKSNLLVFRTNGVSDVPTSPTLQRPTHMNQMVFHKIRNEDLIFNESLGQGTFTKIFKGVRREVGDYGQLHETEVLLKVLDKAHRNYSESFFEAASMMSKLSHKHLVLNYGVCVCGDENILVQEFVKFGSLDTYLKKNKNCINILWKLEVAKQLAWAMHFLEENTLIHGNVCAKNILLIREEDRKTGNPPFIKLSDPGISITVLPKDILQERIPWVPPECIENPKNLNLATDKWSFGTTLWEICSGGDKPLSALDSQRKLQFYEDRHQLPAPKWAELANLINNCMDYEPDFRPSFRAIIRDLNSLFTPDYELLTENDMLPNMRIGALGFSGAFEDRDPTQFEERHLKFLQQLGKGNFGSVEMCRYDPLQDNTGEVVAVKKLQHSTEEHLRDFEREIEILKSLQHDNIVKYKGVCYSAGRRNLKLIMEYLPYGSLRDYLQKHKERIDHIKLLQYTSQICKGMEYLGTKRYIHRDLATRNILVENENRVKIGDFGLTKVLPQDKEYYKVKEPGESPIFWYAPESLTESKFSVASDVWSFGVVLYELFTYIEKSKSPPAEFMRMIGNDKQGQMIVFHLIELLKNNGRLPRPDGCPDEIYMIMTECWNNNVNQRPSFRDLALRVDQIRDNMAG
T1 sequence (P40763 whole entry): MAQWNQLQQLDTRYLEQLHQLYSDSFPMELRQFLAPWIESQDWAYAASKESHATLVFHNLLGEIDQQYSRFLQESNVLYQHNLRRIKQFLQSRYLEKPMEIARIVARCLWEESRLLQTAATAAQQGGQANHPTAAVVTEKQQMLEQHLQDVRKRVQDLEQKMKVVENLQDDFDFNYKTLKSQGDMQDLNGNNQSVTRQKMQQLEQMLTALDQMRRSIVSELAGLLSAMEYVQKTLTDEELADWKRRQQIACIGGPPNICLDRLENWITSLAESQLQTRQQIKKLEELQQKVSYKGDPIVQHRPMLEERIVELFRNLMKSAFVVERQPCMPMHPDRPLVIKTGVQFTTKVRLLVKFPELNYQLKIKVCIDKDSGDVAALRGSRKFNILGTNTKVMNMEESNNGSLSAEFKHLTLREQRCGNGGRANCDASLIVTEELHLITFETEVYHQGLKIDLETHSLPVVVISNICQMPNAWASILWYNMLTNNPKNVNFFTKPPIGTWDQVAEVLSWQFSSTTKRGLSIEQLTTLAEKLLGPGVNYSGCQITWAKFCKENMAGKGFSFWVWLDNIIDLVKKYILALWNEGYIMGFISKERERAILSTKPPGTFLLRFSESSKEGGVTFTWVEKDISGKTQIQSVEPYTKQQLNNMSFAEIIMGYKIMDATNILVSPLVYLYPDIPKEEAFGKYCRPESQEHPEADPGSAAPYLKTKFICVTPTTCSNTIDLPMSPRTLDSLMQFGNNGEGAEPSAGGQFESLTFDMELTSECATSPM

Turning to `Nc1ncn([C@H]2C[C@H](O)[C@@H](CO)O2)c(=O)n1` [Aza, 5-aza-2′-deoxycytidine], the “Expression of DLEC1” value in experiment [1] (NPC cells) was “restored or increased”. In addition, the DLEC1 expression result in [1] (cell lines of ESCC, lung and NPC with silenced DLEC1, 5 μM Aza for 3 days, or followed with ~16 h TSA) is reported as “increased”.
For `CC(/C=C/C(=O)NO)=C\[C@@H](C)C(=O)c1ccc(N(C)C)cc1` [TSA, Trichostatin A], the DLEC1 expression result in experiment [1] (TSA-treated lung carcinoma cell line H1299) is listed as “moderately induced”. Besides, the “binding of acetylated histone 4 to the DLEC1 CGI” value in the experiment with DLEC1 CGI is “increased”.
Take “DLEC1: 1755-amino acid human DLEC1 protein (SEQ ID NO:4), ectopically expressed from pcDNA3.1(+)-Flag-DLEC1 / pCMV-Flag-DLEC1-V5 plasmids”: the “colony numbers and sizes compared to controls” value in experiment [2] is 10-40%. Also, the growth rates result in [3] is “slower growth rates”. The cell cycle distribution result in [4] is “increased G2-M phase cells and decreased S phase cells”. Moreover, the “apoptosis markers (cleaved caspase-3 and PARP)” value in the experiment with carcinoma cells [5] (Western blot) was “increase”. Also, in the experiment on carcinoma cells [5] (after transfection with DLEC1-expression vector), the apoptotic cells entry was “significantly increased”. Besides, in experiment [6], the cell invasion result is “dramatically suppressed” and the cell migration result was “dramatically suppressed”. Besides, in the experiment with carcinoma cells [7], the “closing of artificial wounds” value is “less proficiency in closing artificial wounds than mock cells”. Besides, the “stem cell markers (STAT3, CD44, ABCG2, TWIST and KLF4)” value in the experiment with carcinoma cells [8] (ESCC and lung carcinoma cells, qPCR) is listed as “downregulated”. In the experiment on carcinoma cells [8] (Western blot), the “E-cadherin, vimentin and metastasis markers (MMP7, Twist)” value was “Upregulated E-cadherin and downregulated vimentin and metastasis markers (MMP7, Twist)”. Further, in the experiment with carcinoma cells [8] (carcinoma cells), the “formation of actin stress fibers” value is recorded as “disassembled”. In the experiment with carcinoma cells [8] (immunofluorescence), the “EMT markers E-cadherin and vimentin” value is “gain of epithelial marker E-cadherin and loss of mesenchymal marker vimentin”. In addition, the “reporter activities of NF-κB, AP-1, STATs-bs, TopFlash, SRE and PAI-1 elements-regulated promoters” value in experiment [9] was “markedly repressed”. Moreover, in [10] (DLEC1-expressing carcinoma cells), the “levels of p-ERK (Thr202/Tyr204), p-AKT (Ser473), p-STAT3 (Tyr705 and Ser727) and active β-catenin” value is recorded as “significantly decreased”. Besides, in experiment [10] (IL-6 10 ng/mL for 30 min, KYSE150 and H1299 cells), the “IL-6 treatment-enhanced STAT3 phosphorylation levels” value is “suppress”. Further, the “p-STAT3 levels at both Tyr705 and Ser727 sites” value in experiment [10] (STAT3C-transfected carcinoma cells) is on record as “greatly suppressed”. For the same compound, the “p-STAT3 (Tyr705)” value in experiment [10] (increasing doses of DLEC1-expressing plasmids, dose-dependent) is on record as “Marked decrease”. The “interaction of DLEC1 with STAT3” value with STAT3 (IL-6 stimulation) is given as “increased”. The “interaction with STAT3/p-STAT3 (Tyr705)” value with STAT3 (endogenous proteins, HEK293T cells, immunoprecipitation) is listed as “strong interaction”. Moreover, in the experiment with JAK2 (IL-6 dependent manner), the “interaction of STAT3 with JAK2” value is on record as “inhibited”. The “interaction with JAK2 and p-STAT3 (Tyr705)” value in the experiment with JAK2 (IL-6 stimulation) was “decreasing”. In addition, the “co-precipitation of JAK2” value with JAK2 (endogenous proteins, HEK293T cells) is recorded as “relatively weaker co-precipitation”.

Values taken from patent US11746383B2, “Biomarker DLEC1 for cancer” (The Chinese University of Hong Kong, priority 2018, dated 2023).
